Assay results reported in article PMC5645531, “Probing the Single Key Amino Acid Responsible for the Novel Catalytic Function of ent-Kaurene Oxidase Supported by NADPH-Cytochrome P450 Reductases in Tripterygium wilfordii” (Frontiers in Plant Science, 2017).

Molecular target: T1, TwKO (Tripterygium wilfordii, UniProt A0A2S0H3R9)
T1 construct: full-length ORF co-expressed from pESC-Leu with a TwCPR (all four tested, TwCPR3 best) in Saccharomyces cerevisiae BY-T20; with NADPH--cytochrome P450 reductase 3
T1 sequence (A0A2S0H3R9 1-509): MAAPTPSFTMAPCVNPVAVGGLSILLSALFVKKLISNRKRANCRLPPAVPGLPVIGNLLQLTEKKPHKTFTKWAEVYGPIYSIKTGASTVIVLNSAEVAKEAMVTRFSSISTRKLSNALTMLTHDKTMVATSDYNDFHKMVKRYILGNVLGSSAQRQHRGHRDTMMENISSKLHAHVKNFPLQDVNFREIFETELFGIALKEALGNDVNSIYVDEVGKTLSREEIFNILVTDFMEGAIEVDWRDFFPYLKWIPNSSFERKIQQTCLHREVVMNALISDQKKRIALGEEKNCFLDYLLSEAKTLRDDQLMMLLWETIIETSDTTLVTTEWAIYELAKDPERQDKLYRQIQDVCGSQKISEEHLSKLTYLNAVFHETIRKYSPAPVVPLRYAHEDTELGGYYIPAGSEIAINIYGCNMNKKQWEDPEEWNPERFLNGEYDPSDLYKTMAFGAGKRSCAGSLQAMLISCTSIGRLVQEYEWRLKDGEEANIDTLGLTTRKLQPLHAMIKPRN
T1 sequence (A0A808MGE5 1-690 partner): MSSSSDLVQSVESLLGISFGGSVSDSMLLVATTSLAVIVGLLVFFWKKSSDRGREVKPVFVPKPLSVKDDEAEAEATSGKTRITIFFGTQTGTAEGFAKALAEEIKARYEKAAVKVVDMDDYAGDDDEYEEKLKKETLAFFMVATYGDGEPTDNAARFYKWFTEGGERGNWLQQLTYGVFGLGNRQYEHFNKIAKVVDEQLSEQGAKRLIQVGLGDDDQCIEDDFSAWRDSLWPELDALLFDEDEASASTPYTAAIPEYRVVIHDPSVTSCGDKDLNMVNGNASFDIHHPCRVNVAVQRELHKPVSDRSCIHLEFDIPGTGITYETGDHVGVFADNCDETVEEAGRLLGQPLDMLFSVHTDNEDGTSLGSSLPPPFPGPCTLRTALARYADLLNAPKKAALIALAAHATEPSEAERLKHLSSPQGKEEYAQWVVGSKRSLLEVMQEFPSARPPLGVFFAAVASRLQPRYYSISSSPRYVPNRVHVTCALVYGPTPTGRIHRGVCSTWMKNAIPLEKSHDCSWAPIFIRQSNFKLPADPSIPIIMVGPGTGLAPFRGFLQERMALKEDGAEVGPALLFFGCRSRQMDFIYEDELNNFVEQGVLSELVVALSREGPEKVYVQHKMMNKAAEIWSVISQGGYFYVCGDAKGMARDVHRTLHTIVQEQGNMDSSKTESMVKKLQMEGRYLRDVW
Assay: GC-MS of methylated yeast culture extracts
Format: cell-based
Conditions: co-expressed TwCPR; substrate made in vivo by TwCPS3/TwKSL2:A608M; product ent-kaurenoic acid; 30 °C

With `C=C1C[C@@]23CC[C@@H]4C(C)(C)CCC[C@@]4(C)[C@@H]2CC[C@@H]1C3` [ent-kaurene] the “GC-MS of methylated yeast culture extracts” value was “three-stage oxidation of ent-kaurene to ent-kaurenoic acid”.
